For test [1], the target named is T1, γ-secretase (Homo sapiens, UniProt P49768). Briefly: in vitro γ-secretase assay with Sb4 substrate and solubilized γ-secretase. It counts as biochemical. Conditions: Sb4 substrate, 0.25% CHAPSO, solubilized γ-secretase, 2.5 hours at 37°C, ECL detection. On the procedure: The in vitro and cell-based γ-secretase assays were performed similarly as previously described. Briefly, the recombinant Sb4 substrate was incubated for 2.5 hours at 37°C in pH 7.0 PIPES buffer in the presence of 0.25% CHAPSO detergent and solubilized γ-secretase at a final concentration of 40 ng/ul. The detection of cleaved substrate was determined using ruthenylated G2-10* antibody. Due to biotinylation of the Sb4 substrate, this eliminated the additional use of 6E10 biotinylated antibody from the original protocol.

Test [2] deals with A20 mouse lymphoma cells. In words: lymphoma proliferation assay ([3H]thymidine incorporation). It counts as cell-based. As to conditions: for inhibition of cellular proliferation (in words): 48 hours of treatment. On the procedure:
A20 mouse lymphoma cells were seeded in a 96-well plate at a concentration of 5 × 10^5 cells/ml in 100 μl RPMI media containing 2% fetal bovine serum. An additional 100 μl of media containing DMSO or γ-secretase inhibitor was added and incubated for 48 hours at 37°C. After this incubation, the cells were incubated for 5 hours with 2 μCi/ml [^3H]thymidine at 37°C. Proliferative response was then evaluated by harvesting the tritiated DNA from cells using a Skatron cell harvester and proliferation assessed as a function of [^3H]thymidine incorporation measured on a β-counter.

The target of test [3] is T2, γ-secretase (Mus musculus, UniProt P49769). Briefly: real-time exo-cell γ-secretase assay in A20 mouse lymphoma cells. It counts as cell-based. Conditions: 300 nM, 48 hours treatment. As to the method:
Figure 4 Examination of real-time γ-secretase activity in A20 lymphoma and in primary B-CLL patient samples. (a) Correlation between real-time inhibition of γ-secretase activity and GSI-mediated inhibition of A20 mouse lymphoma proliferation. Two 96-well plates were seeded with 50,000 A20 mouse lymphoma cells per well in 100 μl RPMI media. To each of these plates an additional 100 μl of media was added containing DMSO or GSI-34 to indicated final concentration. These plates were incubated for 48 hours at 37°C. Following this incubation, one plate was used in a real-time exo-cell assay to quantitate the real-time inhibition of γ-secretase in A20 cells. Briefly, A20 cells were pelleted and media removed. Fresh media containing 1 μM Sb4 substrate and 0.25% CHAPSO detergent were added and the exo-cell assay was performed. For each assay point n = 4, and s.d. is plotted. Additionally, to the other 96-well plate 2 μCi/ml [^3H]thymidine was incubated with the cells for 5 hours. Following 5-hour incubation at 37°C, the amount of tritiated DNA was quantified on a β-counter. For each proliferation assay point n = 10, and s.d. is plotted. (b) Real-time γ-secretase activity in primary B-CLL patient samples. […] Assay buffer was added to the samples and γ-secretase-mediated cleavage of substrate was monitored using electrochemiluminescence (ECL). […]

Test [4] addresses T1, γ-secretase. Briefly: extended exo-cell γ-secretase assay in HeLa cells. It counts as cell-based. On the procedure:
(§1) Cells were seeded at their indicated concentration in 96-well plates and allowed to attach overnight (Fig. 1c). The next day, media was removed and cells were washed once with PBS. Fresh media was then added containing 0.25% CHAPSO detergent, Sb4 substrate to a final concentration of 1 μM, and 1% DMSO or γ-secretase inhibitor. This was incubated for 2.5 hours at 37°C. Media was removed and cell debris was pelleted from this media for 5 min. at 3,500 rpm's. Supernatant was then added to ruthenylated G2-10* antibody that recognizes cleaved product, but not uncleaved substrate. This was incubated for an additional 2 hours at room temperature. Finally, magnetic streptavidin beads were added to a final concentration of 80 μg/ml and incubated for 30 min. at room temperature. Assay buffer was added to the samples and γ-secretase-mediated cleavage of substrate was monitored using electrochemiluminescence (ECL). Protocol for HTRF detection can be found below.
Conversely, an extended exo-cell assay was performed whereby cells were seeded and allowed to attach overnight as previously described. However, the next day media was removed and replaced with fresh media containing 1% DMSO or γ-secretase inhibitor. These were incubated for 24 hours at 37°C. Following this incubation, the cells were washed once with PBS and fresh media containing detergent and substrate were added. […]

Test [5] has as its target T1, γ-secretase. In words: exo-cell γ-secretase assay in HeLa cells. It is filed as cell-based. Conditions: HeLa cells incubated simultaneously with GSI, 1 μM Sb4 and 0.25% CHAPSO, 2.5 hours; ECL detection. As to the method: as §1
Homogeneous time-resolved fluorescence (HTRF) was also incorporated for the exo-cell assay detection of cleaved substrate. […] Exo-cell supernatent and HTRF detection mix were incubated together for 5 hours in a 384-well plate and then activity was measured by stimulating at 337 nm and reading at 665 nm.

The target of test [6] is T2, γ-secretase. Briefly: cell-based γ-secretase assay in N2A cells stably overexpressing APP. As to conditions: 24 hours with GSI, Aβ 40-site cleavage, ECL detection. On the procedure:
The cell-based assay utilized N2A mouse neuroblastoma cells that stably overexpress the amyloid precursor protein. These were incubated with γ-secretase inhibitors in a final concentration of 1% DMSO for 24 hours. Following incubation, the supernatant was removed from the cells and assayed for Aβ 40-site cleaved APP product using ruthenylated G2-10* antibody as well as biotinylated 4G8 antibody.

On to `O=C(COc1ccc(F)cc1)Nc1ccc2c(c1)CC1CCC(C2)C1NS(=O)(=O)c1ccc(Cl)s1` (stereo not shown) [GSI-34], for which, in test [1], the IC50 amounted to 1 nM. The “reduction of cellular proliferation” value in test [2] (300 nM, 48 hours treatment) was 30%. In addition, the “inhibition of cellular proliferation (in words)” value in test [2] is “able to inhibit cellular proliferation”. In addition, the inhibition at 0.3 µM in test [3] was roughly 80%. For the same compound, the “inhibition of γ-secretase activity (in words)” value in test [4] (HeLa cells treated 24 hours with varying concentrations) is on record as “Dose-dependent inhibition”.
As to `CC(NC(=O)Cc1cc(F)cc(F)c1)C(=O)NC1N=C(c2ccccc2)c2ccccc2N(C)C1=O` (stereo not shown) [Compound E], the IC50 came out at 3.8 nM in test [5]; 4.6 nM in test [6]; 2.8 nM in test [4] (HeLa cells incubated with GSI for 24 hours, washed, then Sb4 and CHAPSO, ECL detection). In test [2], the “inhibition of cellular proliferation (in words)” value is listed as “able to inhibit cellular proliferation”.
Take `CC(C)C[C@H](NC(=O)[C@H](Cc1ccccc1)C[C@@H](O)[C@H](Cc1ccccc1)NC(=O)OC(C)(C)C)C(=O)N[C@@H](Cc1ccccc1)C(N)=O` [L-685,458]: the “inhibition of cellular proliferation (in words)” value in test [2] is “able to inhibit cellular proliferation”.
